Results as given in ChEMBL document CHEMBL1138927, “Neurotrophic peptide aldehydes: solid phase synthesis of fellutamide B and a simplified analog” (Bioorg Med Chem Lett, 2006).
Active and inactive are the calls of the source. No cut-off for these calls is given here. Residues, ends and D or L forms follow the SMILES beside them. *: point of attachment. Octanoyl = CCCCCCCC(=O)*

How the values were obtained:
Type in all cases: functional, cell-based
LM [1] = assay: Induction of NGF secretion in LM cells at 50 uM after 24 hrs; conditions: Mus musculus
PC-12 = assay: Cytotoxicity against rat PC12 cell line by [3H] thymidine incorporation assay; conditions: PC-12, 24 h
LM [2] = assay: Cytotoxicity against mouse LM cell line by [3H] thymidine incorporation assay
KB = assay: Cytotoxicity against human KB cell line by [3H] thymidine incorporation assay

| Compound | Activity (LM [1]) | IC50 (PC-12) | IC50 (LM [2]) | IC50 (KB) |
| --- | --- | --- | --- | --- |
| CCCCCCCC(=O)N[C@@H](CC(N)=O)C(=O)N[C@@H](CCC(N)=O)C(=O)N[C@H](C=O)CC(C)C (Octanoyl-Asn-Gln-Leu-aldehyde) | Active | 1670 nM | 3330 nM | 4830 nM |
| CCCCCCCCC[C@@H](O)CC(=O)N[C@@H](CC(N)=O)C(=O)N[C@@H](CCC(N)=O)C(=O)N[C@H](C=O)CC(C)C [FELLUTAMIDE B] | Active | 437 nM | 482 nM | 349 nM |
